Experimental data as given in patent US20250346592A1 (Celgene Corporation, priority 2022, published 2025).

Experiments:
hPAD4 enzyme [1] = biological target: T1, hPAD4 enzyme (Homo sapiens (Human), UniProt Q9UM07); assay: RFMS2 assay (RapidFire mass spectrometry, TSTGGRQGSHH peptide substrate); format: biochemical; details: 35 nM recombinant human PAD4, 500 μM TSTGGRQGSHH peptide, 30 minutes at room temperature; read-out: RFMS 2 IC50
Outline: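 IC50 derived from RapidFire LC-MS/MS (positive ESI MRM) of substrate versus product after a 30 min room-temperature reaction stopped with 10% formic acid. Reaction contained 35 nM human PAD4, 500 μM peptide, 2 mM CaCl2, 5 mM DTT at pH 7.4, and compounds diluted 3-fold from 20 μM.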

hPAD4 enzyme [2] = biological target: T1, hPAD4 enzyme; assay: RFMS1 assay (RapidFire mass spectrometry, BAEE substrate); format: biochemical; details: 5 nM hPAD4, 250 μM BAEE, 30 min preincubation at 37° C., 90 min reaction; read-out: RFMS 1 IC50
Experimental: Compounds were solubilized in 100% DMSO to achieve a 10 mM compound concentration. Compound stock solutions were stored at RT. A series of dilutions were prepared in DMSO and mixed 8 times with 20 μL mixing volume. Final top concentration of compound in the assay is 50 μM. Final assay conditions were as follows: • Reaction volume: 26 μl • Assay buffer: 25 mM hepes, pH 7.5, 5 mM NaCl, 1 mM DTT, 0.2 mg/ml BSA, 0.01% CHAPS, 50 µM Calcium, and 5 μM TPEN • Final concentrations: 5 nM hPAD4 enzyme, 250 µM BAEE, and 0.5% DMSO • Total incubation time: 30 mins compound and enzyme preincubation at 37° C., 90 min enzyme/substrate reaction, 30 min reaction with phenyl glyoxal at 37° C. • Stop solution: 40 μl 5% TCA in ACN • 0.13 μL of compound solution was added to 13 μL of 10 nM PAD4 in assay buffer. After […] min 13 μl of 500 µM of BAEE was added in 25 mM hepes, pH 7.5, 5 mM NaCl, 1 mM DTT, 0.2 mg/ml BSA, 0.01% CHAPS, 50 μM Calcium, 5 μM TPEN was added and the reaction incubated for 90 min at 37° C. The enzymatic reaction was quenched by addition of 15 μl of 6.1N TCA, 100% Final Concentration is 20%, 35 μl of 8.5 mM phenyl glyoxal (final concentration 4 mM) is then added and the reaction is incubated for 30 min at 37° C.
After 30 minutes the plates are spun down to remove all precipitate. The enzyme reaction was quenched with an equal volume of methanol containing internal standard (modified citrulline). Samples were loaded onto the Rapid Fire RF300 system (Agilent) wherein they were first sipped for 1000 ms and then directly loaded to a C18 separations cartridge using a mixture of acetonitrile containing 0.01% formic acid for 3000 ms desalting. The flow rate of the mobile phase was 1.5 ml/min. Once the samples were eluted from the cartridge, a mobile phase of acetonitrile containing 0.01% formic acid was used to move the samples into the mass spectrometer for 4000 ms at a flow rate of 1.25 ml/min/Sciex API5500 triple quadrupole mass spectrometer (Applied Biosystems) equipped with ESI was used to analyze the peptidyl citrulline and internal standard ions.
MRM transition of product and internal standard were monitored at m/z 424.5 to 350.4 and m/z 293 to 247 respectively. The dwell time for each transition was set at 200 ms, and the ESI voltage was used at 5500 with a source temperature of 400° C. Extracted ion peaks for each transition were integrated using the Rapid Fire Integrator software. Peak area of analyte was normalized with internal standard.).
Compounds having an activity designated as “A” provided an IC50≤10 nM; compounds having an activity designated as “B” provided an IC50 11-100 nM; compounds having an activity designated as “C” provided an IC50 101-500 nM; compounds having an activity designated as “D” provided an IC50 501-1000 nM; compounds having an activity designated as “E” provided an IC50>1000 nM.

T1 sequence (Q9UM07 whole entry): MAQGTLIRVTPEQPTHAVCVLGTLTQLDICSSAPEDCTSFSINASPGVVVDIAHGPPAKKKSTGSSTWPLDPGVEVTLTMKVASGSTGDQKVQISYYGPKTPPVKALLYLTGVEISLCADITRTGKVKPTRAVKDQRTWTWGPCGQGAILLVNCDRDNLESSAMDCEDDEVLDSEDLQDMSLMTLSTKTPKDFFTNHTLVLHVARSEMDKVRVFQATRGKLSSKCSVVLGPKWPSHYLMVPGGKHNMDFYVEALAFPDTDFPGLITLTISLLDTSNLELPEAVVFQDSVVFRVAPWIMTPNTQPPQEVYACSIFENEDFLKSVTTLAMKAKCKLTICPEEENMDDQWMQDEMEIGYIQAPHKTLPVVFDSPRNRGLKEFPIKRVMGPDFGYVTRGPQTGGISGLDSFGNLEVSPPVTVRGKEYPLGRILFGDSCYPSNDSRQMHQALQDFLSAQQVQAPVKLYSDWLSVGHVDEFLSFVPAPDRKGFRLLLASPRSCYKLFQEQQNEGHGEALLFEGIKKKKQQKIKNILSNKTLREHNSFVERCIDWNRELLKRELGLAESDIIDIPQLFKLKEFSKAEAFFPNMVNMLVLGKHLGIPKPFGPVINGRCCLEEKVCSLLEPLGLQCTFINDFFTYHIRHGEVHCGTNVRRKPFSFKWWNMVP

Structure (SMILES) | IC50 (hPAD4 enzyme [1]) | IC50 (hPAD4 enzyme [2])
CN[C@H](C)CN1CCc2cc3c(cc2C1=O)nc(-c1cc2ccccc2n1CC1CC1)n3C [Example 1, (R)-2-(1-(cyclopropylmethyl)-1H-indol-2-yl)-1-methyl-6-(2-(methylamino)propyl)-1,6,7,8-tetrahydro-5H-imidazo[4,5-g]isoquinolin-5-one] | 101 to 500 nM | 501 to 1000 nM
C[C@H](CN1CCc2cc3c(cc2C1=O)nc(-c1cc2ccccc2n1CC1CC1)n3C)NCCF [Example 3, (R)-2-(1-(cyclopropylmethyl)-1H-indol-2-yl)-6-(2-((2-fluoroethyl)amino)propyl)-1-methyl-1,6,7,8-tetrahydro-5H-imidazo[4,5-g]isoquinolin-5-one] | > 1000 nM | > 1000 nM
Cn1c(-c2cc3ccccc3n2CC2CC2)nc2cc3c(cc21)CCN(CC(C)(C)N)C3=O [Example 6, 6-(2-amino-2-methyl-propyl)-2-[1-(cyclopropylmethyl)indol-2-yl]-1-methyl-7,8-dihydroimidazo[4,5-g]isoquinolin-5-one] | > 1000 nM | > 1000 nM
CC[C@@H](N)CN1CCc2cc3c(cc2C1=O)nc(-c1cc2ccccc2n1CC1CC1)n3C [Example 9, (R)-6-(2-aminobutyl)-2-(1-(cyclopropylmethyl)-1H-indol-2-yl)-1-methyl-1,6,7,8-tetrahydro-5H-imidazo[4,5-g]isoquinolin-5-one] | 101 to 500 nM | 501 to 1000 nM
CC(C)[C@@H](N)CN1CCc2cc3c(cc2C1=O)nc(-c1cc2ccccc2n1CC1CC1)n3C [Example 11, (R)-6-(2-amino-3-methylbutyl)-2-(1-(cyclopropylmethyl)-1H-indol-2-yl)-1-methyl-1,6,7,8-tetrahydro-5H-imidazo[4,5-g]isoquinolin-5-one] | > 1000 nM | > 1000 nM
COc1cccc2cc(-c3nc4cc5c(c(F)c4n3C)CCN(C[C@H]3COCCN3)C5=O)n(CC3CC3)c12 [Example 240, (S)-2-(1-(cyclopropylmethyl)-7-methoxy-1H-indol-2-yl)-9-fluoro-1-methyl-6-(morpholin-3-ylmethyl)-1,6,7,8-tetrahydro-5H-imidazo[4,5-g]isoquinolin-5-one] | – | 101 to 500 nM
Cc1cc(C(N)=O)c(F)cc1-c1ccc2cc(-c3nc4cc5c(cc4n3C)CCN(C[C@H]3COCCN3)C5=O)n(CC3CC3)c2n1 [Example 245, (S)-4-(1-(cyclopropylmethyl)-2-(1-methyl-6-(morpholin-3-ylmethyl)-5-oxo-5,6,7,8-tetrahydro-1H-imidazo[4,5-g]isoquinolin-2-yl)-1H-pyrrolo[2,3-b]pyridin-6-yl)-2-fluoro-5-methylbenzamide] | – | 101 to 500 nM
Cn1c(-c2cc3ccc(-c4cccc(O)c4F)nc3n2CC2CC2)nc2cc3c(cc21)CCN(C[C@H]1COCCN1)C3=O [Example 248, (S)-2-(1-(cyclopropylmethyl)-6-(2-fluoro-3-hydroxyphenyl)-1H-pyrrolo[2,3-b]pyridin-2-yl)-1-methyl-6-(morpholin-3-ylmethyl)-1,6,7,8-tetrahydro-5H-imidazo[4,5-g]isoquinolin-5-one] | – | 501 to 1000 nM
COC1CCN(c2ccc3cc(-c4nc5cc6c(cc5n4C)CCN(C[C@H]4COCCN4)C6=O)n(CC4CC4)c3c2)CC1 [Example 249, (S)-2-(1-(cyclopropylmethyl)-6-(4-methoxypiperidin-1-yl)-1H-indol-2-yl)-1-methyl-6-(morpholin-3-ylmethyl)-1,6,7,8-tetrahydro-5H-imidazo[4,5-g]isoquinolin-5-one] | – | 501 to 1000 nM

Other lines, results leading:

IC50 (hPAD4 enzyme [1]) | IC50 (hPAD4 enzyme [2]) | Structure (SMILES)
101 to 500 nM | 101 to 500 nM | C[C@@H](N)CN1CCc2cc3c(cc2C1=O)nc(-c1cc2ccccc2n1CC1CC1)n3C [Example 5, (R)-6-(2-aminopropyl)-2-(1-(cyclopropylmethyl)-1H-indol-2-yl)-1-methyl-1,6,7,8-tetrahydro-5H-imidazo[4,5-g]isoquinolin-5-one]
101 to 500 nM | 101 to 500 nM | Cn1c(-c2cc3ccccc3n2CC2CC2)nc2cc3c(cc21)CCN(C[C@H](N)C1CC1)C3=O [Example 10, (R)-6-(2-amino-2-cyclopropylethyl)-2-(1-(cyclopropylmethyl)-1H-indol-2-yl)-1-methyl-1,6,7,8-tetrahydro-5H-imidazo[4,5-g]isoquinolin-5-one]
101 to 500 nM | 101 to 500 nM | Cn1c(-c2cc3ccccc3n2CC2CC2)nc2cc3c(cc21)CCN(C[C@H](N)CF)C3=O [Example 12, (S)-6-(2-amino-3-fluoropropyl)-2-(1-(cyclopropylmethyl)-1H-indol-2-yl)-1-methyl-1,6,7,8-tetrahydro-5H-imidazo[4,5-g]isoquinolin-5-one]
501 to 1000 nM | 101 to 500 nM | Cn1c(-c2cc3ccccc3n2CC2CC2)nc2cc3c(cc21)CCN(C[C@H]1COCCN1)C3=O [Example 13, (S)-2-(1-(cyclopropylmethyl)-1H-indol-2-yl)-1-methyl-6-(morpholin-3-ylmethyl)-1,6,7,8-tetrahydro-5H-imidazo[4,5-g]isoquinolin-5-one]
– | ≤ 10 nM | C[C@H](COc1cccc2cc(-c3nc4cc5c(c(F)c4n3C)CCN(C[C@H](N)CF)C5=O)n(CC3CC3)c12)n1cnc(F)c1 [Example 241, 6-((S)-2-amino-3-fluoropropyl)-2-(1-(cyclopropylmethyl)-7-((R)-2-(4-fluoro-1H-imidazol-1-yl)propoxy)-1H-indol-2-yl)-9-fluoro-1-methyl-1,6,7,8-tetrahydro-5H-imidazo[4,5-g]isoquinolin-5-one]
– | ≤ 10 nM | C[C@H](COc1cccc2cc(-c3nc4cc5c(c(F)c4n3C)CCN(C[C@H]3COCCN3)C5=O)n(CC3CC3)c12)n1cnc(F)c1 [Example 242, 2-(1-(cyclopropylmethyl)-7-((R)-2-(4-fluoro-1H-imidazol-1-yl)propoxy)-1H-indol-2-yl)-9-fluoro-1-methyl-6-(((S)-morpholin-3-yl)methyl)-1,6,7,8-tetrahydro-5H-imidazo[4,5-g]isoquinolin-5-one]
– | 11 to 100 nM | CC(=O)N1CCC(c2cccc3cc(-c4nc5cc6c(cc5n4C)CCN(C[C@H]4COCCN4)C6=O)n(CC4CC4)c23)CC1 [Example 243, (S)-2-(7-(1-acetylpiperidin-4-yl)-1-(cyclopropylmethyl)-1H-indol-2-yl)-1-methyl-6-(morpholin-3-ylmethyl)-1,6,7,8-tetrahydro-5H-imidazo[4,5-g]isoquinolin-5-one]
– | 11 to 100 nM | COCC(=O)N1CCC(c2cccc3cc(-c4nc5cc6c(cc5n4C)CCN(C[C@H]4COCCN4)C6=O)n(CC4CC4)c23)CC1 [Example 244, (S)-2-(1-(cyclopropylmethyl)-7-(1-(2-methoxyacetyl)piperidin-4-yl)-1H-indol-2-yl)-1-methyl-6-(morpholin-3-ylmethyl)-1,6,7,8-tetrahydro-5H-imidazo[4,5-g]isoquinolin-5-one]
– | 11 to 100 nM | Cc1cc(N2CCCS2(=O)=O)ccc1-c1ccc2cc(-c3nc4cc5c(cc4n3C)CCN(C[C@H]3COCCN3)C5=O)n(CC3CC3)c2n1 [Example 246, (S)-2-(1-(cyclopropylmethyl)-6-(4-(1,1-dioxidoisothiazolidin-2-yl)-2-methylphenyl)-1H-pyrrolo[2,3-b]pyridin-2-yl)-1-methyl-6-(morpholin-3-ylmethyl)-1,6,7,8-tetrahydro-5H-imidazo[4,5-g]isoquinolin-5-one]
– | 11 to 100 nM | Cc1cc(N2CC(C)(C)OC2=O)ccc1-c1ccc2cc(-c3nc4cc5c(cc4n3C)CCN(C[C@H]3COCCN3)C5=O)n(CC3CC3)c2n1 [Example 247, (S)-3-(4-(1-(cyclopropylmethyl)-2-(1-methyl-6-(morpholin-3-ylmethyl)-5-oxo-5,6,7,8-tetrahydro-1H-imidazo[4,5-g]isoquinolin-2-yl)-1H-pyrrolo[2,3-b]pyridin-6-yl)-3-methylphenyl)-5,5-dimethyloxazolidin-2-one]
